In patent US20230406803A1, “TROPOLONE DERIVATIVES AND TAUTOMERS THEREOF FOR IRON REGULATION IN ANIMALS” (Kinesid Therapeutics, Inc, priority 2020, published 2023):

Assay: Mouse 6-hour PK study
Conditions: mouse, in vivo
Excerpt: Useful such assays include, but are not limited to e.g., those measurements made in PK studies, such as rodent and non-human primate PK studies, including e.g., mouse (such as mouse 6-hour PK studies), rat PK studies, cynomolgus or rhesus PK studies, or the like. Useful measurements obtained in such PK studies include but are not limited to e.g., maximum concentration (Cmax) reflecting the “peak” of a drug observed after its administration that can reflect not only the rate but also the extent of absorption, area under the curve (AUC) representing the area under the plot of tissue (e.g., plasma) concentration against time after drug administration which is of particular use in estimating bioavailability of drugs and drug total clearance, half-life (t1/2) or the period of time required for the concentration or amount of drug to be reduced to exactly one-half of a given concentration or amount that indicates the persistence of the drug in its volume of distribution, and the like.
Such assessments included human and mouse liver microsomal stability assays as well as 6-hour mouse PK studies.

SMILES | AUC(0-t) [ng·h/mL] | Cmax [ng/mL] | half-life [h] | mouse 6-hour PK properties as compared to hinokitiol
O=c1cccc(C2CC3CCC(C2)O3)cc1O (stereo not drawn) [Ex. 6, 4-(8-oxabicyclo[3.2.1]octan-3-yl)-2-hydroxycyclohepta-2,4,6-trien-1-one] | 500 to 1500 | 500 to 1500 | 1.25 to 4.99 | one or more improved mouse 6-hour PK properties as compared to hinokitiol
O=c1ccccc(C2CCOCC2)c1O [Ex. 8, 2-hydroxy-3-(tetrahydro-211-pyran-4-yl)cyclohepta-2,4,6-trien-1-one] | 500 to 1500 | 500 to 1500 | 1.25 to 4.99 | one or more improved mouse 6-hour PK properties as compared to hinokitiol
CCc1cccc(C)c(=O)c1O [Ex. 27, 7-ethyl-2-hydroxy-3-methylcyclohepta-2,4,6-trien-1-one] | 500 to 1500 | 500 to 1500 | 1.25 to 4.99 | one or more improved mouse 6-hour PK properties as compared to hinokitiol
Cc1cc(C(C)C)ccc(O)c1=O [Ex. 28, 7-hydroxy-4-isopropyl-2-methylcyclohepta-2,4,6-trien-1-one] | < 499 | < 499 | 1.25 to 4.99 | one or more improved mouse 6-hour PK properties as compared to hinokitiol
Cc1cccc(C(C)C)c(O)c1=O [Ex. 30, 2-hydroxy-3-isopropyl-7-methylcyclohepta-2,4,6-trien-1-one] | < 499 | < 499 | 5 to 9.99 | one or more improved mouse 6-hour PK properties as compared to hinokitiol
O=c1c(O)cc(C2CC2)ccc1F [Ex. 34, 4-cyclopropyl-7-fluoro-2-hydroxycyclohepta-2,4,6-trien-1-one] | > 20000 | 5000 to 20000 | 1.25 to 4.99 | one or more improved mouse 6-hour PK properties as compared to hinokitiol
O=c1ccccc(OC2CC3(CC3)C2)c1O [Ex. 82, 2-hydroxy-3-(spiro[2.3]hexan-5-yloxy)cyclohepta-2,4,6-trien-1-one] | 500 to 1500 | < 499 | < 1.25 | one or more improved mouse 6-hour PK properties as compared to hinokitiol
O=c1ccccc(OCC2CC2)c1O [Ex. 83, 3-(cyclopropylmethoxy)-2-hydroxycyclohepta-2,4,6-trien-1-one] | 500 to 1500 | 1500 to 5000 | < 1.25 | one or more improved mouse 6-hour PK properties as compared to hinokitiol

Assay: Ligand facilitated Fe(III) efflux from liposomes
Assay type: biochemical
Parameters: unit not given here
Conditions: efflux rate k at 10 μM ligand concentration; ferrozine absorbance 562 nm, 120 min kinetic read
Experimental: Assay 1: Ligand Facilitated Fe(III) Efflux from Liposomes
Preparation of POPC (1 palmitoyl-2-oleoyl-sn-glycero-3 phosphocholine): Cholesterol Liposomes
A 1M buffer solution of MES and Tris was prepared by dissolving 121.14 grams of Tris base and 213.25 grams of MES hydrate in 500 mL of MilliQ water and adjusted to pH7.0 using an […] HCl solution before bringing the total volume of the solution to 1 L. A 500 mM solution of FeCl3 was prepared by dissolving 0.811 grams of anhydrous FeCl3 in 10 mL of a 0.1M H2SO4 aqueous solution. Inside buffer is prepared in a 50 mL falcon tube, which was added with 25 mL of MilliQ water, 1.61 g of sodium citrate, 1.5 mL of the above FeCl3 solution, and 2.5 mL of the 1M MES/Tris HCl buffer (pH=7.0), and finally additional MilliQ H2O to bring to a 50 mL final volume.
Lipid solution is prepared by dissolving 206.9 mg of POPC (1-palmitoyl-2-oleoyl-sn-glycero-3-phosphocholine) and 8.6 mg of cholesterol in 10 mL of ethanol.
The lipids solution and the inside buffer solution are independently loaded into 10 mL luer lock syringes for loading into a virgin cartridge on a Precision Nanosystems NanoAssembler to prepare unilamaller liposomes with the following parameters: 7.5 mL total volume, 1.5:1 mixing ratio of inside buffer:lipids solution, 8 mL/min flow rate, ambient temperature, 0.35 mL start waste, and 0.05 mL of end waste. 7.5 mL of liposomes is harvested for purification on a 6-inch long, 1-inch diameter Sephadex G-50 column wetted in 600 mM sodium ascorbate and 50 mM MES/Tris HCl pH 7.0 buffer. This buffer also serves as the column running buffer. The crude liposome solution is carefully loaded with minimal volume of running buffer above the top of the Sphadex, allowed to enter the matrix, and the column is run with the continued addition of running buffer. The eluting liposomes, observed as a milky and turbid solution, are collected until free iron begins to elute (observed as a deep purple color) and the fractions are pooled for phosphorus quantitation.
Determination of Phosphorus Content:
Phosphorus content of eluted liposomes was determined by the process outlined below. 10 μL of liposome elution and a running buffer blank are added to a 5 mL glass vial containing 450 μL of a 8.9 M aqueous H2SO4 solution, the mixture is heated to 225° C. for 25 minutes in an aluminum heat block to hydrolyze POPC and cooled for 5 minutes. 200 μL of a 30% hydrogen peroxide aqueous solution is added to each vial and heated to 225° C. for 25 minutes. After cooling, the phosphorus content was determined using an Abcam Phosphate Assay kit, with buffer subtracted phosphorus levels determined against a standard curve of phosphate included in the kit. Liposomes were diluted to 1 mM phosphate in Running Buffer for use in assays after accounting for dilutions made during phospholipid digestion.
Determination of the Iron Transporting Rate Constant of the Ligands:
Determination of the rate at which a small molecule ligand liberates (transport) Ferric iron from liposomes is performed in clear bottom black 384-well plates on a Spectramax i3x set to read the absorbance at 562 nm in the kinetic mode every 60 seconds for 120 minutes. 1 μL of serially diluted DMSO stock solution of a small molecule ligand is added to wells in triplicate to give the final concentrations of 40, 20, 10, 5, 2.5, and 1.25 uM of the ligand at 80 μL final volume, followed by addition of 1 μL of 100 mM Ferrozine in water to give a final concentration of 1 mM ferrozine. 78 μL of liposomes diluted to 1 mM phosphorus in running buffer is added to wells as quickly as possible (using a digital repeater multichannel pipette) with the kinetic read initiated as rapidly as possible after addition of liposomes to all wells. Typically, eight compounds at six concentrations are tested in triplicate simultaneously. […]

SMILES | Liposome Fe transport kefflux at 10 μM
COc1ccc(O)c(=O)cc1 | 5-7.5
Cc1cccc(C2CCCCO2)c(O)c1=O (stereo not drawn) | <.1
O=c1cccc(C2CC3CC3C2)cc1O (stereo not drawn) | 0.1-5
O=c1ccccc(C2CC3CC3C2)c1[O-].[Na+] (stereo not drawn) | 0.1-5
CC1(C)CCC(c2ccc(O)c(=O)cc2)C1 (stereo not drawn) | 0.1-5
O=c1cccc(C2CCC3(CC2)CC3)cc1O | 0.1-5
Cc1cccc(C2CCCO2)c(O)c1=O (stereo not drawn) | 10-25
O=c1cccc(OC2CCC2)cc1O | 0.1-5
O=c1ccccc(OC2CCCC2)c1O | 7.5-10
CC(C)c1cccc(=O)c(S)c1 | 0.1-5
CC(C)c1cccc(S)c(=O)c1 | 0.1-5
O=c1c(F)cccc(OC2CCC2)c1O | 10-25
O=c1ccc(OC2CCCC2)ccc1O | 5-7.5
O=c1cccc2c(c1O)OCCC2 | 5-7.5
O=c1c(F)cccc(C2CC2)c1O | 7.5-10
COC1CCCC1c1ccccc(=O)c1O (stereo not drawn) | 5-7.5
Cc1coc2c(O)c(=O)cccc12 | 7.5-10
O=c1c(F)cccc(OC2CCCC2)c1O | 7.5-10
O=c1c(F)cccc(C2CCCCO2)c1O (stereo not drawn) | 5-7.5
O=c1c(O)ccc(C2CC2)cc1F | 10-25
O=c1ccc(F)ccc1O | 7.5-10
O=c1ccccc(CC2COC2)c1O | <0.1
CC1(c2ccc(O)c(=O)cc2)CC1 | 0.1-5

SMILES | Liposome Fe transport kefflux at 10 μM
CC(C)c1ccc(F)cc(O)c1=O | 0.1-5
Cc1cc(F)ccc(=O)c1O | 5-7.5
O=c1ccc(F)cc(C2CCCO2)c1O (stereo not drawn) | 5-7.5
O=c1c(O)ccc(OC2CCCC2)cc1F | 5-7.5
O=c1cccc(F)cc1O | 0.1-5
CCc1ccc(F)c(=O)c(O)c1 | 0.1-5
CC(C)c1cc(F)ccc(=O)c1O | 0.1-5
O=c1ccc(F)cc(C2CCCCO2)c1O (stereo not drawn) | 0.1-5
O=c1ccc(OC2CC3(CC3)C2)ccc1O | 0.1-5
O=c1ccccc(OCC2CCC2)c1O | 5-7.5
O=c1c(F)cccc(OC2CC2)c1O | 0.1-5
CC1(c2ccc(O)c(=O)c(F)c2)CC1 | 5-7.5
O=c1c(F)cccc(OC2CC3(CC3)C2)c1O | 0.1-5
O=c1ccc(C(CO)Cc2ccccc2)ccc1O (stereo not drawn) | 0.1-5
O=c1ccc(F)cc(C2CCOCC2)c1O | 7.5-10
O=c1ccc(F)cc(OC2CCC2)c1O | 0.1-5
Cc1cc(Cl)ccc(=O)c1O | 5-7.5
O=c1cccc(OC2CC3(CC3)C2)cc1O | 5-7.5
C[C@@H]1CCC(c2ccccc(=O)c2O)O1 (mixture of isomers) | 5-7.5
CC1CCC(c2ccccc(=O)c2O)O1 (racemic) | 5-7.5
O=c1cccc(O[C@H]2CCOC2)cc1O (stereo in doubt) | 5-7.5
C[C@@H](Oc1ccccc(=O)c1O)C1CC1 (stereo in doubt) | 5-7.5
C[C@H](Oc1ccccc(=O)c1O)C1CC1 (stereo in doubt) | 5-7.5
